The results in this text go back to ChEMBL document CHEMBL5512610, “Drug discovery and optimization based on the co-crystal structure of natural product with target” (Eur J Med Chem, 2024).

SMILES strings stand for the structures.

Series [1] addresses T1, Cyclin-dependent kinase 9 (Homo sapiens, UniProt P50750). Kind of series: Inhibition of human recombinant CDK9 (773 to 928 residues) expressed in insect cells. Set-up: species or system Insect cell.
A further series has as its system A549. Kind of series: Growth inhibition of human A549 cells incubated for 72 hrs by MTT assay. In kind it is functional. (Tetrazolium dyes change colour on reduction, which living cells bring about.)
A short description of series [2]: Binding affinity to actin (unknown origin) assessed as dissociation constant. More on the design: species or system Homo sapiens.
A short description of series [3]: Oral bioavailability in mouse. The note with it: in vivo. In kind it is ADME, organism-based.
Series [4] deals with T1, Cyclin-dependent kinase 9. Put plainly: Inhibition of CDK9 (unknown origin).
Series [5] deals with Cyclin-dependent kinase 2 (Homo sapiens, UniProt P24941). Kind of series: Inhibition of CDK2 (unknown origin).
The next series has as its system HepG2. Put plainly: Cytotoxicity against human HepG2 cells assessed as reduction in cell growth. Format: functional, cell-based.
Series [6] deals with MRC5. Put plainly: Cytotoxicity against human MRC5 cells assessed as reduction in cell viability. Format: functional, cell-based.
Series [7] can be described thus: Cytotoxicity against HUVEC cells assessed as inhibition of cell growth incubated for 72 hrs by MTT assay. The settings on record: human. In kind it is toxicity, cell-based.
Series [8] can be described thus: Cytotoxicity against human ARPE-19 cells assessed as cell growth inhibition incubated for 72 hrs by MTT assay. In kind it is toxicity, cell-based.
The subject of another series is NCI-N87. Kind of series: Antitumor activity against human NCI-N87 cells assessed as reduction in cell growth. In kind it is functional, cell-based.
The test system of the next series is Plasmodium falciparum. Kind of series: Antiplasmodial activity against Plasmodium falciparum K1 assessed as reduction in parasite growth. In kind it is functional, organism-based.
Another series relates to Hepatitis C virus. Kind of series: Antiviral activity against Hepatitis C virus genotype 1b infected in human Huh-7 cells assessed as reduction in viral infection. In kind it is functional, organism-based, Hepacivirus hominis.
The test system of series [9] is MRC5. Kind of series: Antiproliferative activity against human MRC5 cells assessed inhibition of cell growth incubated for 48 hrs by MTT assay. In kind it is functional, cell-based. The settings on record: MRC5, 48 h.

T1 sequence (P50750 whole entry, the tested form may be a part): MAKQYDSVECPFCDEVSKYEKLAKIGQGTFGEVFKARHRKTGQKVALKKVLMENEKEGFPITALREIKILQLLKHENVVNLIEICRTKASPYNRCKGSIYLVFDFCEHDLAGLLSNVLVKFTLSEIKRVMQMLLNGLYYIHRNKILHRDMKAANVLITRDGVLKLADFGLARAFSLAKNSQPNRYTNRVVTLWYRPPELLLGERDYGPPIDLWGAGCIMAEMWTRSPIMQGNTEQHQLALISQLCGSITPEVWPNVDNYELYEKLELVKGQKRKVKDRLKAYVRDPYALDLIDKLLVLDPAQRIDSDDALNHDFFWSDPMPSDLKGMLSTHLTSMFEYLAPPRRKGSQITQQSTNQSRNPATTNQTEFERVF

What is called IC50 is the concentration at which inhibition is half-maximal. Turning to `Nc1nccc(-c2c3cccnc3n3c(N)nccc23)n1`, the half-inhibitory concentration (IC50) in [1] was 26 nM.
As usually defined, the GI50 is the concentration that inhibits growth by half. A low value points to more potent growth inhibition. For orientation: Kd means the constant that tells how readily two partners part at equilibrium. `C=CCC[C@@H]1CCC[C@]2(CC[C@H](C)[C@@H](CCCNC(=O)[C@@H](C)[C@@H](O)CNC(=O)C[C@@H]3OC(CC(=O)/C=C/C)CC[C@@H]3C)O2)O1` (stereo partly drawn) gave a 50% growth inhibitory concentration (GI50) with A549 of 323 nM. Moreover, the Kd in [2] was determined as 1500 nM.
The term bioavailability denotes the share of a dose that reaches the circulation, judged against a reference dose that is usually intravenous. A higher bioavailability goes with good availability. As to `CC(=O)N(C)[C@H](C(=O)N1C[C@H](C)C[C@H]1C(=O)N(C)[C@@H]1C(=O)N[C@@H](CC(C)C)C(=O)N2C[C@H](C)C[C@H]2C(=O)N[C@@H](CC(C)C)C(=O)N(C)[C@@H](C(C)C)C(=O)N2CC(C3CCCCC3)C[C@H]2C(=O)N(C)[C@H](CC(C)C)C(=O)NCC(=O)O[C@@H]1C)C(C)C` (stereo partly drawn), in series [3], the bioavailability worked out at 89%.
`C=C[C@@H](C)CC[C@@H]1CCC[C@]2(CC[C@H](C)[C@@H](CCCNC(=O)[C@@H](C)[C@@H](O)CNC(=O)CCOC)O2)O1` displayed a 50% growth inhibitory concentration (GI50) in the series on A549 of 15100 nM. Further, the dissociation constant Kd in series [2] is 43 nM.
With `Nc1nccc(-c2c[nH]c3nccc(O)c23)n1` [MERIOLIN 2], the IC50 in series [4] turned out to be 2.6 µM; in [5], 3.1 µM.
Turning to `Nc1nccc(-c2c[nH]c3ncccc23)n1` [MERIOLIN 1], the half-maximal inhibitory concentration (IC50) in series [4] is 10 µM.
In the case of `CC[C@]1(NC(N)=O)[C@@H](N)[C@H](Nc2cccc(C(C)=O)c2)[C@](O)(COC(=O)c2c(C)cccc2O)[C@]1(C)O`, the half-inhibitory concentration (IC50) with HepG2 was above 9500 nM.
Turning to `CC[C@]1(NC(=O)N(C)C)[C@@H](N)[C@H](Nc2cccc(C(C)=O)c2)[C@](O)(CO)[C@]1(C)O`, the IC50 in the series on MRC5 [6] is 5.6 nM.
In the series on A549, `C=CCC1CC[C@H](C)[C@H](CC(=O)NC[C@H](O)[C@H](C)C(=O)NCCC[C@H]2O[C@@]3(CCC[C@@H](CC[C@H](C)C=C)O3)CC[C@@H]2C)O1` (stereo partly drawn) had a GI50 of 11200 nM. In [2], the dissociation constant (Kd) turned out to be 39 nM.
`C=CCNC1=C2C[C@@H](C)C[C@H](OC)[C@H](O)[C@@H](C)/C=C(\C)[C@H](OC(N)=O)[C@@H](OC)/C=C\C=C(/C)C(=O)NC(=C(C)C1=O)C2=O` (stereo in doubt): the IC50 at 72 h in [7] and in series [8] was above 20 µM each time.
As usually defined, the EC50 is the concentration at which the effect is half-maximal. `CO[C@H]1/C=C\C=C(/C)C(=O)NC2=CC(=O)C(NCCN(C)C)=C(C[C@@H](C)C[C@H](OC)[C@H](O)[C@@H](C)/C=C(\C)[C@@H]1OC(N)=O)C2=O` (stereo in doubt) [ALVESPIMYCIN]: the concentration giving a half-maximal response (EC50) in the series on NCI-N87 is 62 nM.
Take `COCCC(=O)NC[C@H](O)[C@H](C)C(=O)NCCC[C@H]1O[C@@]2(CCC[C@@H](CC[C@@H](C)/C=C(\C)[C@@H](C)O)O2)CC[C@@H]1C`: the dissociation constant Kd in series [2] came out at 9 nM.
As for `CC(=O)c1cccc(N[C@H]2[C@H](N)[C@](C)(NC(=O)N(C)C)[C@@](C)(O)[C@@]2(O)CO)c1`, in the series with Plasmodium falciparum, the 50% inhibitory concentration (IC50) stood at 62 nM.
Regarding `CO[C@H]1/C=C\C=C(/C)C(=O)NC2=C(C)C(=O)C(NCCN(C)C)=C(C[C@@H](C)C[C@H](OC)[C@H](O)[C@@H](C)/C=C(\C)[C@@H]1OC(N)=O)C2=O` (stereo in doubt), the half-inhibitory concentration (IC50) at 72 h in [7] and in [8] was above 20 µM in each case.
Consider `CC[C@H]1C[C@H](C)[C@@]2(NC1=O)O[C@@H](C[C@H](O)[C@@H](C)CC/C=C/C=C(\C)[C@@H]1C/C=C/C=C/[C@H](O)[C@H](C)[C@@H](O)[C@@H](CCC(C)=O)C(=O)N[C@@H](C(C)C)C(=O)N[C@@H](Cc3cccc(O)c3)C(=O)N3CCC[C@H](N3)C(=O)O1)[C@H](C)[C@H](O)[C@@H]2C` [SANGLIFEHRIN A], for which, in the series with Hepatitis C virus, the EC50 was determined as 87 nM.
Regarding `CC(=O)c1cccc(N[C@H]2[C@H](N)[C@@](NC(=O)N(C)C)([C@H](C)O)[C@@](C)(O)[C@@]2(O)COC(=O)c2c(C)cccc2O)c1` [PACTAMYCIN], the IC50 is 95 nM with MRC5 [9], 187 nM with Plasmodium falciparum and 86 nM with HepG2.
Molecule `CC(=O)N(C)[C@H](C(=O)N1C[C@H](C)C[C@H]1C(=O)N(C)[C@@H]1C(=O)N[C@@H](CC(C)C)C(=O)N2C[C@H](C)C[C@H]2C(=O)N[C@@H](CC(C)C)C(=O)N(C)[C@@H](C(C)C)C(=O)N2CC(C)C[C@H]2C(=O)N(C)[C@H](CC(C)C)C(=O)NCC(=O)O[C@@H]1C)C(C)C` (stereo partly drawn) gave a bioavailability in series [3] of 47%.
`CC(=O)c1cccc(N[C@H]2[C@H](N)[C@](C)(NC(=O)N(C)C)[C@@](C)(O)[C@@]2(O)COC(=O)c2c(C)cccc2O)c1`: the IC50 in the series with Plasmodium falciparum is 77 nM.
As for `C=C[C@H](C)CCC[C@@H]1CCC[C@]2(CC[C@H](C)[C@@H](CCCNC(=O)[C@@H](C)[C@@H](O)CNC(=O)C[C@@H]3OC(CC(=O)/C=C/C)CC[C@@H]3C)O2)O1` (stereo partly drawn), it took 87.1 nM to inhibit growth in the series on A549 by half (GI50). Further, in series [2], the Kd is 70 nM.
On the same counts, the results for `C/C=C/C(=O)C[C@H]1CC[C@H](C)[C@H](CC(=O)NC[C@H](O)[C@H](C)C(=O)NCCC[C@H]2O[C@@]3(CCC[C@@H](CC[C@@H](C)/C=C(\C)[C@@H](C)O)O3)CC[C@@H]2C)O1` are 20.4 nM and 7 nM.
Turning to `C=CCNC1=C2C[C@@H](C)C[C@H](OC)[C@H](O)[C@@H](C)/C=C(\C)[C@H](OC(N)=O)[C@@H](OC)/C=C\C=C(/C)C(=O)NC(=C(c3ccccc3)C1=O)C2=O` (stereo in doubt), the half-inhibitory concentration (IC50) at 72 h in series [7] and in series [8] was above 20 µM in each case.
For the molecule `CC[C@]1(NC(N)=O)[C@@H](N)[C@H](Nc2cccc(C(C)=O)c2)[C@](O)(CO)[C@]1(C)O`, the concentration for half-maximal inhibition (IC50) in the series on HepG2 is above 5600 nM.
